According to US20230125429A1 (priority 2017, published 2023):
Several values for one entry are separate records, joined by “and”; a condition that tells them apart may be missing. Identical values can stand only once. Entries after “also recorded” stand apart in the source; their conditions may differ.

Key:
[1] = tested on: 51 human cancer cell lines; experiment: Growth inhibitory effect, one hour exposure, whole panel; assay type: cell-based; conditions: mean over the 51 cancer cell lines
Experimental: Cancer cell lines and immortalized human cell lines were cultured in 1640 tissue culture medium (Corning, USA) with 10% fetal bovine serum in a standard tissue culture condition of 37° C. and 5% CO2.
For primary hepatocytes, the seeded cells were monitored for up to 48 hours either without any treatment (as a control) or with various types of treatments. For primary keratinocytes, cells in 48-well plates were monitored either without any treatment or with various types of treatment for up to 96 hours. For HepG2, cells 96-well plates were monitored either without any treatment or with various types of treatments for up to 48 hours. […]
To address this possibility, we investigated whether other cell lines, including other HCC cell lines, cell lines from other type of cancers, as well as non-cancer immortalized/transformed cell lines, were also sensitive to Triptonide. Specifically, a total of 51 human cancer cell lines, representing 10 types of human cancers (6 non-small cell lung cancer cell lines, 5 colon cancer cell lines, 5 central nerve system cancer cell lines, 8 Melanomas cell lines, 4 ovarian cancer cell lines, 4 renal cancer cell lines, 2 prostate cancer cell lines, 3 breast cancer cell lines, 7 hepatocellular carcinoma cell lines, and 4 gastric cancer cell lines) were analyzed.

[2] = tested on: LO2; experiment: Growth inhibitory effect, one hour exposure (IncuCyte Zoom); assay type: cell-based, human; conditions: LO2, immortalized hepatocytes
[3] = tested on: HepG2; assay type: cell-based, human
[4] = tested on: serum starved HepG2 cells; assay type: cell-based, human
[5] = tested on: mimosine-treated HepG2 cells; experiment: One-hour treatment of mimosine-treated HepG2 cells, live cell imaging; assay type: cell-based, human
[6] = tested on: mimosine treated HepG2 cells; experiment: Cell cycle analysis by flow cytometry (PI staining); assay type: cell-based, human; conditions: for G2/M cells: 1 µM
[7] = tested on: wild-type keratinocytes; experiment: Growth of wild-type primary keratinocytes, short-term treatment; assay type: cell-based, mouse
[8] = tested on: ERK phosphorylation; experiment: ERK phosphorylation in HepG2 cells (Western blot); assay type: cell-based, human; conditions: serum-starved HepG2; trypsin 50 nM, Triptolide 1 µM, Triptonide 1 µM; 0-40 minutes
[9] = tested on: phosphorylated histone H3 (p-H3); experiment: Histone H3 phosphorylation in HepG2 cells (Western blot); assay type: cell-based, human; conditions: 1 µM for 1 hour, 2 hours after mimosine release; monitored to hour 12
Experimental: HepG2 cells were synchronized by mimosine for 28 hours and released into regular culture medium for 2 hours. […] After the treatment, cells were incubated in the regular culture condition and samples were harvested every hour from 2 to 12 hours (shown on top of the top panel). Western blots were performed to determine the relative levels of phosphorylated histone H3 (p-H3), CDK1 and beta actin (ATCB) (as controls).
After treatments, cells were harvested and protein extracts were prepared by lysis in RIPA buffer (Solarbio). Western blots were performed using specific antibodies and SuperSignal® West Pico Chemiluminescent Substrate (Pierce). Antibodies were purchased from commercial venders as described below: polyclonal rabbit anti-PAR2 antibodies (ABGENT), polyclonal rabbit anti-Beta-Actin antibodies (Cell Signaling Technology), anti-ERK (Cell Signaling Technology), anti-phosphorylated ERK (Cell Signaling Technology), anti-phosphorylated histone H3 (Abchem), anti-CDK1 (Abcam).
After the Triptonide treatments, cells were returned to regular culture condition and samples were harvested at various time points for Western blot analysis.

[10] = tested on: cAMP; experiment: Measurement of cAMP levels in HepG2 cells; assay type: cell-based, human
[11] = tested on: PKA; experiment: Measurement of PKA activity in HepG2 cells; assay type: cell-based, human
[12] = tested on: HepG2-based orthotopic xenograft tumor; parameters: species or system nude mice; conditions: mouse, in vivo
[13] = tested on: PMHs
[14] = tested on: HepG2-GFP orthotopic xenograft tumor

SMILES: CC(C)[C@]12O[C@H]1[C@@H]1O[C@@]13[C@@]1(C)CCC4=C(COC4=O)[C@@H]1C[C@@H]1O[C@@]13C2=O [Triptonide]
- IC50 [1]: 7.31 µM and 7.66 µM
- IC50 [2]: 0.642 µM
- effect of continuous exposure on HepG2 [3]: complete death
- cells exhibiting the features of mitotic catastrophe [4]: approximately 60%
- effect on growth of serum starved HepG2 cells [4]: no significant impacts; also recorded: growth inhibitory only when it was administered at the 0 and 2 hours after the starvation
- effect of treatment applied at hour 0 after release [5]: became static, but no significant accumulation of mitotic catastrophe cells
- sensitivity to mitotic catastrophe-inducing effect by time of treatment [5]: only sensitive when the treatment was applied at 2 hours
- G2/M cells ([6]; 11 hours after mimosine release): 82%
- G2/M cells ([6]; 24 hours after mimosine release): 80%
- G2/M cells ([6]; 37 hours after mimosine release): 78%
- sub-G1 (<2N, apoptotic) population ([6]; 10 µM, by 24 hours): significant peaks of the sub-G1
- IC50 [7]: 1.29 µM
- effect on growth of wild-type keratinocytes [7]: effective in inhibiting the growth; also recorded: complete growth inhibition; also recorded: significant growth suppressive effect
- levels of phosphorylated ERK [8]: only an acute transient increase
- level of histone H3 phosphorylation [9]: remained very low
- amplitude of cAMP elevation versus control ([10]; 1 µM at 2 hours after mimosine treatment, serum-free): about 4 folds
- levels of cAMP ([10]; 1 µM at non-sensitive time, 4 hours after mimosine treatment): modest elevation
- levels of cAMP ([10]; treatment 2 hours after mimosine, Trypsin 50 nM, Triptonide 1 µM, serum-free): two waves of elevation
- levels of PKA activities, acute ([11]; 1 µM, serum free, first 30 minutes after treatment): two-wave elevation
- level of PKA activity around G2/M transition ([11]; one-hour treatment in regular medium (Trypsin 50 nM, Triptonide 1 µM), hour 9 and 10 after mimosine): remained largely unchanged
- intensities of the tumor specific signal / tumor mass [12]: very effective in reducing the tumor mass; also recorded: reduced the tumor specific signal to the background level
- effect of continuous exposure on PMHs [13]: complete death
- toxic effect on PMHs [13]: no significant toxic effect
- average body weight of the animals ([14]; 25 mg/kg by gavage every other day): did not have any significant impact
- tumor specific signals during follow-up ([14]; remaining mice, another four months without further treatments): No tumor specific signals were ever detected again
- autopsy for tumors ([14]; six of the treated mice): did not reveal any signs of tumors
